“And” between values parts separate entries of the source, which are not always exact repeats. Equal values may be shown once. “Also recorded” adds a separate entry of the source. Marks after values point to notes of the source that are not given here.
What was measured:
Format in all cases: in vivo
[1] = tested on: male SD rats, obstruction-released kidney (glomerular lesions and tubulointerstitial lesions); assay: Obstruction release model after complete obstruction of unilateral ureter for 14 days (Example 2-1); parameters: key to Tubulointerstitial lesions: level of lesions (quality): summed lesion score: + = 1, ++ = 2, +++ = 3 points; details: rat; for Regeneration CD11b^−CD2^+ macrophages to tubulointerstitial lesions, Determination: increase + / Coincidence of two regeneration macrophages being positive / Glomerular lesions: proportion of lesioned glomeruli (%) / Number of regeneration CD11b^+CD2^+ macrophages to glomerular lesions: number of positive cells per glomerulus / Number of regeneration CD11b^−CD2^+ macrophages to tubulointerstitial lesions: number of positive cells (CD11b) in five fields of 200× magnification / Regeneration CD11b^+CD2^+ macrophages to glomerular lesions, Determination: increase = + / Serum creatinine / Tubulointerstitial lesions: level of lesions (quality): 30 mg/kg subcutaneously every day for 21 days, one value per animal
From the text: (§1) That is, the rat was laparotomized under anesthesia with ether and left ureter was ligated with 7-0 Nylon at the height of the margin of lower pole of kidney to close the abdomen. On the 14th day after obstruction, the obstruction was released and urinary passage was reconstructed using a cuff. Thus, after 14 days, the part of ligated obstructed ureter was resected, a polyethylene tube of 25 gages (manufactured by Nippon Sherwood) was used as a cuff and inserted into and retained at the lumen from the cut end of the lower normal ureter, then the cuff was also retained in the expanded upper ureter and each of them was ligated and fixed by 7-0 Nylon to reconstruct the urinary passage. At the same time, the right kidney at the opposite side was excised. After the release of the obstruction, body weight was measured, blood was drawn on the 2nd day, 5th day and 7th day from the release to measure serum creatinine, then the rat was killed under anesthesia and the left obstruction-released kidney was excised.
With regard to the excised kidney, there were carried out measurements of weight of the kidney, creatinine concentration mg/dl in plasma as an indicator of kidney function and pathological test for the kidney, and also leukocyte cells which infiltrate the obstruction-released kidney were immunopathologically studied with cell surface markers for ED1 macrophages, CD11b (ED8) positive macrophages and CD5 positive lymphocytes. A number of positive cells was expressed as a number of cells per glomerulus from measured numbers of positive cells in five glomeruli, and for a number in tubulointerstitial tissue, it was expressed by the total number of cells existing in five fields of 200×magnification. For macrophages, a number of CD11b positive cells existing in glomerulus was considered as a number of CD11b^+CD2^+ macrophages and a case of existing not less than one positive cell per glomerulus was considered as positive (+). In the tubulointerstitial tissue, a number of […] 60 CD11b positive cells was considered as positive (+), or a case of CD11b^−CD2^+ macrophages dominantly increasing. Scoring of evaluation of tubulointerstitial lesions was as follows: + gets 1-point as a light lesion; ++ gets 2-point as a moderate lesion; and +++ gets3-point as a severe lesion. For glomerular lesions, when a proportion of lesioned glomeruli was decreased to not more than 40%, and for tubulointerstitial lesions, when a score of the lesions was not more than 4, it was considered as improved.
For glomerular lesions, by counting glomeruli causing thickening of Bowman's capsule wall and glomerular hyalinosis, a proportion of glomeruli having lesions was calculated. For tubulointerstitial lesions, by qualifying hyperplasia of tubular basement membrane and interstitial fibrosis, levels of the lesions were represented.
(§2) An in vivo biological test was carried out for the γ-lactone derivative according to the present invention using this model. Bulk powder of a test compound was dissolved in sterile physiological saline together with gum arabic, and concentrations of the test compound and gum arabic were adjusted to 30 mg/mL and 5% respectively. The preparation was administered orally or subcutaneously injected at the dose of 30 mg/kg or 3 mg/kg every day. The administration was conducted for the total 21 days of the obstructed period for 14 days and after release of the obstruction for 7 days.
For test groups, a group administered single compound group, a group administered both compound group and a control group administered solution of gum arabic were set up and compared for renal functions and morphological evaluations, as well as numbers of ED1, CD5, CD11b positive cells by means of immunopathology.

[2] = tested on: male SDT rats (spontaneously type II diabetes model), complete skin-excised wounds; assay: Complete skin-excised model, wound healing; details: SDT rat, 10 mg/kg subcutaneously every day
From the text: Using male SDT rats of 28-30 weeks age, which were a spontaneously type II diabetes model, promoting effect on repair and regeneration in wound healing after complete skin excision were examined according to a partially modified method of Breitbout AS et al. (Ann Plast Surg 1999, 43: 632). That is, an animal was shaved at its back under anesthesia with ether, and skin in 2×2 cm size was excised together with panniculus carnosus in same size to make two complete skin-excised wounds per animal.
Healings of the wounds were observed on the 1st day, 4th day, 7th day, 12h day, 15th day, 21st day and 28th day from the operation. An area of the wounds was obtained as the product of the average vertical length and the average horizontal length which were measured along with a direction of the longest part in the wound.
A test compound was dissolved in sterile physiological saline together with gum arabic. Concentrations of the test compound and gum arabic were adjusted to 30 mg/mL and 5% respectively. The preparation was subcutaneously injected at the dose of 10 mg/kg every day. The administration was started on 6 days before the operation and continued to 28 days after the operation.

[3] = tested on: male SD rats, obstruction-released kidney (glomerular lesions and tubulointerstitial lesions); assay: Obstruction release model after complete obstruction of unilateral ureter for 14 days (Example 2-2); parameters: key to Tubulointerstitial lesions: level of lesions: summed lesion score; + = 1, ++ = 2, +++ = 3; ≤6.5 improved; details: rat, 30 mg/kg subcutaneously
From the text: as §1, §2
For cell surface markers of leukocyte cells which infiltrate the obstruction-released kidney, ED1, CD11b (ED8), CD5 and CD2 were used. […] For CD5^+, a number of not less than 20 per glomerulus was considered as positive. For glomerular lesions, which was characterized by Bowman's capsule wall, glomerular hyalinosis, dilation of urinary space pole and hypertrophy of parietal cells, 50 glomeruli were evaluated to obtain a proportion of pathologic glomeruli. For tubulointerstitial lesions, levels of the lesions were represented by qualifying hyperplasia of tubular basement membrane, tubular enlargement and atrophy and interstitial fibrosis. Scoring was as follows: + gets 1-point as a light lesion; ++ gets 2-point as a moderate lesion; and +++ gets 3-point as a severe lesion. Levels of cell infiltration were evaluated qualitatively according to the above three-point scale. For glomerular lesions, when a proportion of lesioned glomeruli was decreased to not more than 20%, and for tubulointerstitial lesions, when a score of the lesions was not more than 6.5, it was considered as improved.
Numbers of cells positive for CD11b (ED8), CD2 and CD5 were compared by means of immunopathology, and CD11b^+CD2^+ macrophages were considered as regeneration-promoting macrophages in glomeruli and CD11b^−CD2^+CD5+ macrophages were considered as regeneration-promoting macrophages to tubulointerstitial lesions, and herewith, it was estimated whether each cell group is quantitatively dominant or not.

O=C1CCC(F)(C(=O)OCc2ccccc2)O1 (stereo not shown) [compound (II-2), 2-fluoro-5-oxotetrahydrofuran-2-carboxylic acid benzyl ester]
cases with increased regeneration-promoting CD11b^+CD2^+ macrophages to glomerular lesions ([1]; 30 mg/kg subcutaneously): Regeneration-promoting macrophages were increased on both lesions
cases with increased regeneration-promoting CD11b^−CD2^+ macrophages to tubulointerstitial lesions ([1]; 30 mg/kg subcutaneously): Regeneration-promoting macrophages were increased on both lesions
Regeneration CD11b^−CD2^+ macrophages to tubulointerstitial lesions, Determination: increase + [1]: + (a number of not more than 60 CD11b positive cells was considered as positive (+))
Coincidence of two regeneration macrophages being positive ([1]; 30 mg/kg): Not coincident; also recorded: Coincident
Glomerular lesions: proportion of lesioned glomeruli (%) ([1]; 30 mg/kg): 32% and 28% and 19% and 18%
Number of regeneration CD11b^+CD2^+ macrophages to glomerular lesions: number of positive cells per glomerulus ([1]; 30 mg/kg): 0.7 cells per glomerulus and 1.7 cells per glomerulus and 2.3 cells per glomerulus and 1.4 cells per glomerulus
Number of regeneration CD11b^−CD2^+ macrophages to tubulointerstitial lesions: number of positive cells (CD11b) in five fields of 200× magnification ([1]; 30 mg/kg): 33 cells in five fields of 200× m and 35 cells in five fields of 200× m and 27 cells in five fields of 200× m and 16 cells in five fields of 200× m
Regeneration CD11b^+CD2^+ macrophages to glomerular lesions, Determination: increase = + ([1]; 30 mg/kg): + (a case of existing not less than one positive cell per glomerulus was considered as positive (+))
Serum creatinine ([1]; 30 mg/kg): 2.0 mg/dl (2×) and 2.5 mg/dl and 2.3 mg/dl
Tubulointerstitial lesions: level of lesions (quality) ([1]; 30 mg/kg): 4.5 (2×) and 6.5 (2×)

C[C@@H](OC(=O)[C@]1(Oc2ccc(F)cc2)CCC(=O)O1)c1ccc2ccccc2c1 [compound (I-1), (R)-1-naphthalen-2-ylethyl (S)-2-(4-fluorophenoxy)-5-oxotetrahydrofuran-2-carboxylate]
Excised wound area (cm^2) ([2]; 1st day after complete skin excision): 3.38 cm^2
Excised wound area (cm^2) ([2]; 4th day after complete skin excision): 2.10 cm^2
Excised wound area (cm^2) ([2]; 7th day after complete skin excision): 1.45* cm^2
Excised wound area (cm^2) ([2]; 12th day after complete skin excision): 0.56* cm^2
Excised wound area (cm^2) ([2]; 15th day after complete skin excision): 0.51 cm^2
Excised wound area (cm^2) ([2]; 21st day after complete skin excision): 0.40 cm^2
Crust formation/number of wound ([2]; 21st day after the operation): 0/8
crust formation on the surface of repaired wounds (in words) ([2]; 28th day): no crust formation occurred
Excised wound area (cm^2) ([2]; 28th day after complete skin excision): 0.18* cm^2
Crust formation/number of wound ([2]; 28th day after the operation): 0/8
promoting effect on wound healing (in words) ([2]; versus the control group, 10 mg/kg): more promoting effect on wound healing at 7th day to 12th day after the operation; also recorded: in 28th day of healing period, it showed promoting effect on wound healing; also recorded: promoting effect on healing of dermis and epidermis including panniculus carnosus
cases with increased regeneration-promoting CD11b^+CD2^+ macrophages to glomerular lesions ([1]; 30 mg/kg subcutaneously): two of four cases
cases with increased regeneration-promoting CD11b^−CD2^+ macrophages to tubulointerstitial lesions ([1]; 30 mg/kg subcutaneously): three of four cases
difference in serum creatinine ([1]; 30 mg/kg subcutaneously): no difference
pathological improvement of glomerular lesions (cases) ([1]; 30 mg/kg subcutaneously): no glomerular lesion was improved
pathological improvement of tubulointerstitial lesions (cases) ([1]; 30 mg/kg subcutaneously): three of four cases
Coincidence of two regeneration macrophages being positive ([1]; 30 mg/kg): Not coincident; also recorded: Coincident
Glomerular lesions: proportion of lesioned glomeruli (%) ([1]; 30 mg/kg): 29% and 39% and 57% and 67%
Number of regeneration CD11b^+CD2^+ macrophages to glomerular lesions: number of positive cells per glomerulus ([1]; 30 mg/kg): 0.5 cells per glomerulus and 2.0 cells per glomerulus and 0.0 cells per glomerulus and 1.3 cells per glomerulus
Number of regeneration CD11b^−CD2^+ macrophages to tubulointerstitial lesions: number of positive cells (CD11b) in five fields of 200× magnification ([1]; 30 mg/kg): 24 cells in five fields of 200× m and 140 cells in five fields of 200× m and 59 cells in five fields of 200× m and 41 cells in five fields of 200× m
Regeneration CD11b^+CD2^+ macrophages to glomerular lesions, Determination: increase = + ([1]; 30 mg/kg): + (a case of existing not less than one positive cell per glomerulus was considered as positive (+))
Regeneration CD11b^−CD2^+ macrophages to tubulointerstitial lesions, Determination: increase + ([1]; 30 mg/kg): + (a number of not more than 60 CD11b positive cells was considered as positive (+))
Serum creatinine ([1]; 30 mg/kg): 3.0 mg/dL and 2.7 mg/dL and 2.8 mg/dL and 2.2 mg/dL
Tubulointerstitial lesions: level of lesions (quality) ([1]; 30 mg/kg): 7.0 and 4.0 and 3.0 (2×)

O=C1OC(Cl)(C(=O)OCc2ccccc2)c2ccccc21 (stereo not shown) [compound (I-3), 1-chloro-3-oxo-1,3-dihydroisobenzofuran-1-carboxylic acid benzyl ester]
cases in which regeneration-promoting CD11b^+CD2^+ macrophages were predominant in glomeruli [3]: three of four cases
cases in which regeneration-promoting CD11b^−CD2^+CD5+ macrophages were predominant in tubulointerstitial lesions [3]: three of four cases
difference in serum creatinine [3]: no difference
pathological improvement of glomerular lesions (cases) [3]: all four cases
pathological improvement of tubulointerstitial lesions (cases) [3]: two of four cases
Coincidence of two regeneration macrophages being positive ([3]; one value per animal, 30 mg/kg): Coincident
Degree of cell infiltration ([3]; one value per animal, 30 mg/kg): + and +++
Number of regeneration CD11b^+CD2^+ macrophages to glomerular lesions: number of positive cells per glomerulus CD11b^+CD2^+ ([3]; one value per animal, 30 mg/kg): 4.3 cells per glomerulus and 1.8 cells per glomerulus (2×) and 0.5 cells per glomerulus
Number of regeneration CD11b^−CD2^+CD5^+ macrophages to tubulointerstitial lesions: number of positive cells in five fields of 200× magnification, CD5^+ ([3]; one value per animal, 30 mg/kg): 77 cells in five fields of 200× m and 25 cells in five fields of 200× m and 60 cells in five fields of 200× m and 20 cells in five fields of 200× m
Number of regeneration CD11b^−CD2^+CD5^+ macrophages to tubulointerstitial lesions: number of positive cells in five fields of 200× magnification, CD11b^+ ([3]; one value per animal, 30 mg/kg): 62 cells in five fields of 200× m and 53 cells in five fields of 200× m and 14 cells in five fields of 200× m and 22 cells in five fields of 200× m
Regeneration macrophages to glomerular lesions, Determination Increase + ([3]; one value per animal, 30 mg/kg): + (a case of existing not less than one positive cell per glomerulus was considered as positive (+))
Serum creatinine ([3]; one value per animal, 30 mg/kg): 2.8 mg/dL and 1.4 mg/dL and 2.1 mg/dL and 1.7 mg/dL
Tubulointerstitial lesions: level of lesions ([3]; one value per animal, 30 mg/kg): 6.5 and 3.5 and 7.0 and 8.5
Glomerular lesions: proportion of lesioned glomeruli (%) ([3]; one value per animal, 50 glomeruli evaluated): <1%
Regeneration CD11b^−CD2^+CD5^+ macrophages to tubulointerstitial lesions, Determination Increase + ([3]; one value per animal, CD11b^+ not more than 60 and CD5^+ not less than 20, 30 mg/kg): + (For CD5^+, a number of not less than 20 per glomerulus was considered as positive)

Source: patent US20060014709A1, “Drug or cosmetic” (priority 2002, published 2006)
